# Measurements taken from patent US20030224983A1, “Stimulation of beta cell proliferation” (priority 1998, published 2003).
# Tests used:
# [1] = test system: beta cells (insulin positive cells in pancreatic islet cells from newborn rats); assay: beta cell proliferation in vitro, BrdU incorporation in insulin positive islet cells; assay type: cell-based, rat; settings: for number of labelled beta cells: then 10 μM BrdU for 90 min, absence of hormones 0.6%
# From the text: Diabetes is characterized by insufficiency of the pancreatic beta cells to maintain normoglycemia. In type 1 diabetes (IDDM) this is due to destruction of the beta cells by an autoimmune process whereas in type 2 diabetes (NIDDM) it is due to a combination of beta cell deficiency and peripheral insulin resistance. […] However in diabetic patients the number of beta cells is reduced and it is therefore pertinent not only to improve the function of the beta cells by therapeutical means but also to increase the number of beta cells. […] In our efforts to identify beta cell growth factors we discovered that GLP-1 indeed could stimulate beta cell proliferation in vitro. The proliferation was measured as incorporation of the thymidine analogue 5-bromo-2-deoxyuridine into DNA in insulin positive cells in pancreatic islet cells from newborn rats. […] This may have important implication for the treatment and/or prevention of diabetes.
# The protocol was a slight modification of the procedure described by Billestrup and Nielsen (Billestrup N, Nielsen J H: The stimulatory effect of growth hormone, prolactin, and placental lactogen on beta cell proliferation is not mediated by insulin-like growth factor-I. Endocrinology 1991; 129:883-888.). Pancreatic islets were isolated from newborn rats by the collagenase method and cultured for 2-5 days before use. 2000 islets were transfered to 15 ml plastic tubes and washed once with Ca/Mg-free Hank's balanced salt solution. 500 μl cold trypsin solution (0.05% trypsin, 0.53 mM EDTA in Ca/Mg-free Hank's solution). The islets were dispersed by aspiration with a pipette. 5 ml culture medium RPMI 1640 with 2% human serum was added. 75,000 islet cells were then placed in tissue culture flasks previously coated with ECL cell attachment matrix (Upstate Biotechnology) with 2 ml culture medium with 1 μg/ml human growth hormone (hGH) (Norditropin, Novo Nordisk). After 7 days in culture at 37C the medium was replaced with culture medium without hGH or with addition of 100 nM GLP-1, 5 μM Arg^34, Lys^26(N-ε-(γ-Glu(N-α-hexadecanoyl)))-GLP-1(7-37) or 200 ng/ml hGH. After 2 days in culture 10 μM 5-bromo-2-deoxyuridine (BrdU) was added and after 90 min the medium was removed and the cells fixed in 1% paraformaldehyde in 0.1 M phosphate buffer. The cells were then stained with antibodies to BrdU and insulin as described (Billestrup and Nielsen, 1991). The number of labelled beta cells in the absence of hormones was 0.6% and in the presence of hGH 3.5%. In the presence of GLP-1 the number was 1.7% and in the presence of Arg^34, Lys^26(N-ε-(γ-Glu(N-α-hexadecanoyl)))-GLP-1(7-37) 1.4%.
# [2] = test system: male Zucker Diabetic Fatty fa/fa (ZDF) rat; assay: blood glucose during a normal 24-hour feeding schedule in ZDF rats; assay type: in vivo
# From the text: (§1) The male Zucker Diabetic Fatty fa/fa (ZDF) rat is a model of Type 2 diabetes. The rats are insulin resistant but normoglycemic from birth and they develop diabetes from about week 7 to week 10 of age. During the transitional period, the animals go through a state of impaired glucose tolerance. Although the animals are hyperinsulinemic before diabetes onset and during the early stages of diabetes, they later lose glucose-stimulated insulin secretion and finally become almost completely insulinopenic.
# (§2) We have studied the effects of Arg^34, Lys^26(N-ε-(γ-Glu(N-α-hexadecanoyl)))-GLP-1(7-37) therapy during a period of time when the animals would normally progress from having impaired glucose tolerance to having overt Type 2 diabetes. Three groups of male ZDF rats (Genetic Models Inc, Indianapolis, Ind., U.S.A.) were studied and dosed subcutaneously bi-daily with either vehicle (group A), 30 (group B) or 150 μg/kg (group C) of Arg^34, Lys^26(N-ε-(γ-Glu(N-α-hexadecanoyl)))-GLP-1(7-37), n=6 per group. Animals were between 7 and 8 weeks old when dosing was initiated, and fed glucose levels were not different between the groups before dosing began. […] After 36 days of dosing, an oral glucose tolerance test was performed in the animals after an 11-hour fast. One g/kg of glucose was administered by oral gavage and subsequent measurements of blood glucose and plasma insulin were made.
# beta-cells of ZDF rats [3] = assay: beta-cell proliferation rate in vivo, BrDU and insulin double staining of pancreas sections; parameters: species or system rat; settings: 30 and 150 μg/kg bi-daily, 100 mg BrDU/kg i.p. six hours before sacrifice
# Experimental: (§3) The rat experiment described in example 2 were examined for effects of Arg^34, Lys^26(N-ε-(γ-Glu(N-α-hexadecanoyl)))-GLP-1(7-37) (named GLP-1 in FIG. 3 and 4) on beta-cell growth and neogenesis.
# Bromodeoxyuridine (BrDU) is incorporated in newly synthesized DNA and thus will label replicating cells. Six hours before sacrifice the rats were given an injection of 100 mg BrDU/kg intraperitoneally. After sacrifice the pancreata were fixed in 4% PFA, dehydrated, embedded in paraffin, and […] sections double stained for BrDU and insulin for the measurement of beta-cell proliferation rate.
# Insulin was stained with guinea pig anti-insulin, peroxidase-coupled rabbit anti-guinea pig Ig, and developed with AEC to give a red stain. BrDU was stained by monoclonal mouse anti-BrDU, biotinylated goat anti-mouse Ig, avidin peroxidase, and developed with DAB and CuSO4 to give a dark brown stain. BrDU stained nuclei of cells with insulin stained cytoplasm was examined in more than 1500 cells per section. The examination of the sections were carried out with the origin of the sections blinded to the observer.
# beta-cells of ZDF rats [4] = assay: relative mass of islet beta-cells, point counting stereologic techniques; assay type: in vivo, rat
# From the text: as §3
# Neighbor sections were stained for insulin and the combination of glucagon-somatostatin-pancreatic polypeptide for the measurement of the relative mass of islet beta-cells and nonbeta-cells. The beta-cells were stained for insulin as described above. The nonbeta-cells were stained with a mixture of monoclonal mouse anti-glucagon+rabbit anti-somatostatin+rabbit anti-pancreatic polypeptide, detected by biotinylated swine anti-multible Ig's, avidin peroxidase, and developed with DAB and CuSO4 to give a dark brown stain. The volume fractions of beta- and nonbeta-cells were estimated by point counting stereologic techniques.
# [5] = test system: male Zucker Diabetic Fatty fa/fa (ZDF) rat; assay: oral glucose tolerance test in ZDF rats; assay type: in vivo; settings: group C, 150 μg/kg bi-daily, after 36 days; 11-hour fast, 1 g/kg glucose by oral gavage; total AUC, p<0.0002 by ANOVA
# From the text: as §1, §2
substance,measurement,setting,value
GLP-1: The term GLP-1 means GLP-1(7-37) or GLP-1(7-36) amide [reference compound],number of labelled beta cells,"[1]; 100 nM GLP-1, 2 days in culture",1.7%
same,number of labelled beta cells (in words),"[1]; BrdU incorporation into DNA in insulin positive cells, newborn rat islet cells",increase the number of labelled beta cells
"hGH: human growth hormone (hGH) (Norditropin, Novo Nordisk)",number of labelled beta cells,"[1]; 200 ng/ml hGH, 2 days in culture",3.5%
"Arg^34, Lys^26(N-ε-(γ-Glu(N-α-hexadecanoyl)))-GLP-1(7-37)",blood glucose levels during a normal 24-hour feeding schedule,"[2]; group B (low dose), 30 μg/kg subcutaneously bi-daily, after 10 days of dosing",hyperglycemic
same,"blood glucose levels during a normal 24-hour feeding schedule, compared to initial measurements","[2]; group C, 150 μg/kg subcutaneously bi-daily, after 10 days of dosing",unchanged compared to the initial measurements
same,"blood glucose levels during a normal 24-hour feeding schedule, compared to vehicle- and low-dose-treated animals","[2]; group C, 150 μg/kg subcutaneously bi-daily, after 10 days, total area under the curve, p<0.0002 by ANOVA",significantly lower
same,number of labelled beta cells,"[1]; 5 μM, 2 days in culture",1.4%
same,fraction of beta-cells that had incorporated BrDU,beta-cells of ZDF rats [3],dose dependent increase
same,"beta-cell fraction of the total pancreas, compared to vehicle treated rats",beta-cells of ZDF rats [4]; 30 ng/g for 6 weeks,significantly higher
same,beta-cell fraction of the total pancreas,"beta-cells of ZDF rats [4]; 150 ng/g, compared to 30 ng/g",no further increase
same,"glycemic level in oral glucose tolerance test, compared to groups A and B",[5],significantly lower
